Test results taken from PubChem BioAssay (NCI).
Several values for one entry are separate records, joined by “and”; a condition that tells them apart may be missing. Identical values can stand only once.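 Each compound was tested at five concentrations against cells in 96-well plates for 48 hours. At the GI50, growth is halved. TGI marks complete inhibition of growth.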

Key:
Test in all cases: DTP human tumour cell line panel, 48 h
SF-539 CNS = system: SF-539 CNS
786-0 renal = system: 786-0 renal
ACHN renal = system: ACHN renal
K-562 leukemia = system: K-562 leukemia
SK-MEL-2 melanoma = system: SK-MEL-2 melanoma
NCI-H522 lung = system: NCI-H522 lung
KM12 colon = system: KM12 colon
HCC-2998 colon = system: HCC-2998 colon
RXF 393 renal = system: RXF 393 renal
SNB-75 CNS = system: SNB-75 CNS

SMILES	GI50 (SF-539 CNS) [µM]	TGI (SF-539 CNS)	GI50 (786-0 renal)	TGI (786-0 renal)	GI50 (ACHN renal)	TGI (ACHN renal)	GI50 (K-562 leukemia) [µM]	TGI (K-562 leukemia)	GI50 (SK-MEL-2 melanoma) [µM]	TGI (SK-MEL-2 melanoma) [µM]	GI50 (NCI-H522 lung) [µM]	TGI (NCI-H522 lung)	GI50 (KM12 colon) [µM]	TGI (KM12 colon)	GI50 (HCC-2998 colon)	TGI (HCC-2998 colon)	GI50 (RXF 393 renal) [µM]	TGI (RXF 393 renal)	GI50 (SNB-75 CNS) [µM]	TGI (SNB-75 CNS) [µM]
CCN(CC)CCNC(=O)c1cn2ncnc(Oc3ccc(NC(=O)Nc4ccc(Cl)c(C(F)(F)F)c4)c(F)c3)c2c1C	1.12	2.43 µM	1.95 µM	3.69 µM	1.68 µM	3.04 µM	0.442	2.28 µM	1.61	3.3	2.03	4.13 µM	1.57	3.08 µM	2.17 µM	3.77 µM	1.8	3.35 µM	0.412	1.97
CCC1=C[C@@H]2CN(C1)Cc1c([nH]c3ccccc13)[C@@](C(=O)OC)(c1cc3c(cc1OC)N(C)[C@H]1[C@@](O)(C(=O)OC)[C@H](OC(C)=O)[C@]4(CC)[C@@H]5C[C@@H]5CN5CC[C@]31[C@@H]54)C2	0.0342	2.91 µM	< 0.005 µM and 0.0139 µM	1.58 µM and 14.2 µM	0.0191 µM and 0.168 µM	7.79 µM and 26.2 µM	< 0.005	–	< 0.005	2.07	< 0.005	< 0.005 µM	< 0.005	6.54 µM and 11.1 µM	< 0.005 µM and 0.0211 µM	–	0.0105	11.1 µM	–	11
NC(=O)c1cccc(Nc2nccc(Nc3cccc(F)c3)n2)c1	11.3	> 25 µM	9.15 µM	> 25 µM	8.83 µM	> 25 µM	8.13	> 25 µM	7.37	24.4	5.82	> 23.8 µM	7.27	> 25 µM	18.5 µM	> 25 µM	3.72	14.6 µM	6.22	> 23.4
COc1c(Br)cc(Br)c(OC)c1-c1[nH]c(Br)c(Br)c1Br	–	21.8 µM	–	22.8 µM	–	17.1 µM	–	15 µM	–	13.7	–	7.25 µM	–	21.1 µM	–	19.2 µM	–	6.01 µM	–	17.6
CCCCCCCCCCN=C(c1ccc(N(C)C)cc1)c1ccc(N(C)C)cc1	0.832	5.47 µM	3.61 µM	36.8 µM	2.47 µM	> 73.9 µM	0.207	> 100 µM	0.492	33.2	0.352	5.94 µM	0.414	> 75.8 µM	5.07 µM	> 88.6 µM	1.66	9.87 µM	0.4	6.69
CN(C)Cc1c[nH]c2c(NCCN)c3c(c(NCCN)c12)C(=O)c1ccccc1C3=O	2.83	7.47 µM	0.71 µM	7.8 µM	2.12 µM	9.04 µM	0.516	> 100 µM	2.41	8.27	1.13	3.26 µM	1.59	7.11 µM	2.45 µM	8.37 µM	6.32	18.1 µM	6.13	17
CC(=O)N[C@H](C(=O)N[C@@H](CCCNC(=N)N)C(=O)N[C@@H](CCCCN)C(=O)N[C@@H](CCCNC(=N)N)C(=O)N[C@]1(C)CCCCCC/C=C\CCC[C@@](C)(C(=O)N[C@@H](CCCNC(=N)N)C(=O)N[C@@H](CCC(=O)O)C(=O)N[C@@H](CC(C)C)C(=O)N[C@H](C(=O)N[C@@H](CCC(=O)O)C(N)=O)C(C)C)NC(=O)[C@H](CCC(N)=O)NC(=O)[C@H](CC(C)C)NC(=O)[C@H](CC(C)C)NC(=O)[C@H](CCCNC(=N)N)NC(=O)[C@H](CCCNC(=N)N)NC(=O)[C@H](CC(C)C)NC1=O)C(C)C	1.97	15.8 µM	1.24 µM	2.91 µM	8.06 µM	28.1 µM	5.42	21.6 µM	7.59	> 50	2.66	> 50 µM	1.3	3.77 µM	4.65 µM	46.6 µM	1.34	4.77 µM	1.99	13.1
CCCCCCCCCCCCCCCCCCNC(=O)[C@H]1CSC(c2cccs2)N1 (some centres not stated)	1.71	7.85 µM	1.13 µM	2.49 µM	30.9 µM	> 50 µM	0.761	2.14 µM	0.957	1.79	3.59	> 50 µM	0.977	1.98 µM	1.06 µM	2.31 µM	0.973	1.72 µM	0.811	1.58
CC1=C(C(=O)Nc2ccccc2C)C(/C=C/c2ccccc2)C(C(=O)Nc2ccccc2C)=C(C)N1	–	> 100 µM	–	> 100 µM	–	> 100 µM	–	> 100 µM	–	> 100	–	> 100 µM	–	> 100 µM	–	> 100 µM	–	> 100 µM	–	> 100
C[n+]1c2ccccc2cc2c(CNC(CCCN=C(N)N)C(=O)O)cccc21 (configuration not stated)	–	2.66 µM and 2.91 µM	0.443 µM	2.19 µM and 1.59 µM	0.486 µM	1.83 µM and 2.05 µM	0.485	1.09 µM and 7.63 µM	0.957	7.25	0.157	2.78 µM and 0.342 µM	–	1.72 µM and 1.57 µM	5.14 µM	5.67 µM and 16.7 µM	2.22	1.34 µM and 4.78 µM	1.82	10.8
COCCOCCOCc1n(Cc2ccc3ccccc3n2)c2ccccc2[n+]1Cc1ccc2ccccc2c1	0.338	1.4 µM	1.53 µM	3.04 µM	2.04 µM	5.68 µM	0.291	1.7 µM	0.376	1.56	0.248	0.936 µM	0.388	1.63 µM	0.468 µM	2.04 µM	1.68	4.46 µM	0.312	1.35
CC1(C)N=C(N)N=C(N)N1c1ccc(OCC(=O)Nc2ccccc2)c(Cl)c1	2.1	> 100 µM	11.1 µM	> 100 µM	62.9 µM	> 100 µM	0.446	> 100 µM	> 93.9	> 100	3.01	> 100 µM	0.842	> 100 µM	4.99 µM	> 100 µM	> 87.1	> 100 µM	> 100	> 100
C=C1CC2(OC1=O)C(=O)N(CCCN1C(=O)C3(CC(=C)C(=O)O3)c3ccccc31)c1ccccc12 (configuration not stated)	1.76	3.43 µM	1.68 µM	3.9 µM	1.15 µM	2.36 µM	0.385	2.07 µM	10.4	32.3	0.444	1.87 µM	2.72	12 µM	2.14 µM	4.53 µM	1.32	2.83 µM	3.44	26.8
CC(=O)NNc1nc(C)c(C(=O)NNC(=O)C(=O)Nc2nc3ccc([N+](=O)[O-])cc3s2)s1	–	> 100 µM	–	> 100 µM	–	> 100 µM	–	> 70.6 µM	–	> 100	–	61.4 µM	–	> 100 µM	–	> 100 µM	–	> 95.6 µM	–	> 100
COc1ccc(Nc2nc3ccccc3nc2-c2cccs2)cc1	–	> 100 µM	–	> 100 µM	–	> 100 µM	–	> 100 µM	–	> 100	–	> 100 µM	–	> 100 µM	–	> 100 µM	–	> 100 µM	–	82.2
Cc1cc(Nc2nc(SCc3ccc(C(=O)Nc4ccc(F)cc4N)cc3)nn3cccc23)n[nH]1	0.282	17.4 µM	0.466 µM	22 µM	1.24 µM	13 µM	0.0487	> 100 µM	0.617	6.01	0.0488	0.565 µM	0.284	10.3 µM	0.677 µM	11.5 µM	0.301	13 µM	0.198	35.4
COc1ccc(-c2nnc(N3CCN(C(=O)CN4CCN(c5ccc(OC)cc5)CC4)CC3)nc2-c2ccc(OC)cc2)cc1	14.1	33.2 µM	15.3 µM	40.6 µM	18.1 µM	50.8 µM	2.14	4.44 µM	10.2	44.1	3.32	9.25 µM	2.93	8.4 µM	18.8 µM	47.2 µM	5.38	38.8 µM	15.6	44.8
O=C(O)CCC(NC(=S)S)C(=O)O.[Na+].[Zn+2] (configuration not stated)	> 50	> 50 µM	> 50 µM	> 50 µM	> 50 µM	> 50 µM	> 50	> 50 µM	> 50	> 50	> 50	> 50 µM	> 50	> 50 µM	> 50 µM	> 50 µM	> 50	> 50 µM	> 50	> 50
C[C@H](Cn1ncnn1)Nc1ncc2cc(Oc3ccc(F)cc3F)c(=O)n(C)c2n1	> 25	> 25 µM	> 25 µM	> 25 µM	> 25 µM	> 25 µM	> 25	> 25 µM	> 25	> 25	> 25	> 25 µM	> 25	> 25 µM	> 25 µM	> 25 µM	> 25	> 25 µM	> 25	> 25
CSc1c(C)c(C)nn1-c1ccccc1	–	> 100 µM	–	> 100 µM	–	> 100 µM	–	> 100 µM	–	> 100	–	> 100 µM	–	> 100 µM	–	> 100 µM	–	> 100 µM	–	> 100
CCCCCCCCCCCC[n+]1ccccc1 (tested in a mixture with another compound)	1.43	3.44 µM	1.95 µM	5.92 µM	2.25 µM	14.1 µM	0.392	11 µM	1.76	5.52	0.855	5.42 µM	0.38	1.59 µM	0.646 µM	2.12 µM	0.682	4.44 µM	1.08	3.84
Cc1ccc2nc3c(Cl)c(C)c(=O)cc-3sc2c1	50.9	> 100 µM	96.3 µM	> 100 µM	39.7 µM	> 100 µM	–	> 100 µM	51.1	> 100	–	> 100 µM	78	> 100 µM	> 100 µM	> 100 µM	–	> 100 µM	31.6	> 100
Cc1ccccc1Nc1nc2c(s1)C(=O)c1ccccc1C2=O	–	12.7 µM	–	8.47 µM	–	14.6 µM	–	> 36.2 µM	–	31.5	–	7.52 µM	–	23.4 µM	–	32.2 µM	–	19.3 µM	–	29.9
O=C1C(SCCO)=C(SCCO)C(=O)c2ccccc21	–	2.02 µM	–	3.91 µM	–	2.26 µM	–	3.87 µM	–	4.24	–	3.56 µM	–	3.76 µM	–	3.42 µM	–	2.8 µM	–	2.57
O=C(c1ccc2ccccc2c1)c1c(C(F)(F)F)n([O-])c2ccc(Cl)cc2[n+]1=O	1.58	2.92 µM	1.64 µM	3.09 µM	1.63 µM	2.98 µM	1.22	2.65 µM	1.74	3.2	1.61	3.02 µM	1.08	2.39 µM	1.26 µM	2.6 µM	0.425	1.4 µM	1.3	2.57
CC(=O)[CH-]C(C)=O.[CH2-]C.[CH2-]C.[Tl+3]	> 100	> 100 µM	> 100 µM	> 100 µM	> 100 µM	> 100 µM	> 100	> 100 µM	> 100	> 100	> 100	> 100 µM	> 100	> 100 µM	> 100 µM	> 100 µM	> 100	> 100 µM	> 100	> 100
